# From patent publication US9273028B2, “Heterocyclic tyrosine kinase inhibitors” (Biogen MA Inc., priority 2010, dated 2016)
# Molecular target: T1, BTK (Homo sapiens, UniProt Q06187)
# T1 construct: purchased Upstate 14-552
# Assay: In vitro BTK kinase assay (BTK-POLYGAT-LS)
# Format: biochemical
# Conditions: IC50 (10 uM ATP)
# Description: In vitro BTK Kinase Assay
# The purpose of the BTK in vitro assay is to determine compound potency against BTK through the measurement of IC50. […] For a typical assay, a 24 μL aliquot of a ATP/peptide master mix (final concentration; ATP 10 μM, polyGAT 100 nM) in kinase buffer (10 mM Tris-HCl pH 7.5, 10 mM MgCl2, 200 μM Na3PO4, 5 mM DTT, 0.01% Triton X-100, and 0.2 mg/ml casein) is added to each well. […] The assay is incubated for 30 minutes before being stopped with 28 μL of a 50 mM EDTA solution. […] The plate is covered and incubated for 45 minutes at room temperature.
# T1 sequence (Q06187 whole entry): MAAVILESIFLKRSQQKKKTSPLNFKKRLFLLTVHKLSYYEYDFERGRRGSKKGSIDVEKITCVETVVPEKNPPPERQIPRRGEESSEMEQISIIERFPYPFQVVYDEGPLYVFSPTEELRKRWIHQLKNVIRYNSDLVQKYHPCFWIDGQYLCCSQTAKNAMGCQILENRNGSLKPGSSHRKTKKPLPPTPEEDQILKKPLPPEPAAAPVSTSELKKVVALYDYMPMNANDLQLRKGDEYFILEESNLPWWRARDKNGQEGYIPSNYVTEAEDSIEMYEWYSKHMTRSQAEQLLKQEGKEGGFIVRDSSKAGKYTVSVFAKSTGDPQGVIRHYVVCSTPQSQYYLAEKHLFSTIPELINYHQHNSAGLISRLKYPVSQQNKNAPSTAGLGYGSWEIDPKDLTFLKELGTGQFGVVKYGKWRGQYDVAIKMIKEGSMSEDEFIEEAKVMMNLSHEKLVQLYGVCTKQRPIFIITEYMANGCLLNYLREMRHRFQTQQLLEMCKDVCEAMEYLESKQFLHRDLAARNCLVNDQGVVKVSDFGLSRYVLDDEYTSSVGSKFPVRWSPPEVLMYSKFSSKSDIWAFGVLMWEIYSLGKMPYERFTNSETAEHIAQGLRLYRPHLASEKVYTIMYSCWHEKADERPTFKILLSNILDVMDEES
row,SMILES,IC50 [nM]
1,NC(=O)c1cnc2[nH]ccc2c1NC1CCCN(C(=O)NCc2cc(Cl)cc(Cl)c2)C1 (stereo not drawn) [Compound 224],< 100
2,O=C(CNc1cc(Cl)cc(Cl)c1)N1CCCC(N(CCN2CCCC2)c2ncnc3[nH]ccc23)C1 (stereo not drawn) [Compound 54],1000 to 10000
3,CC1CCCC(NCC(=O)N2CCC[C@H](Nc3ncnc4[nH]ccc34)C2)C1 (stereo partly drawn) [Compound 117],> 10000
4,CCCCC1C(Nc2ncnc3[nH]ccc23)CCCN1C(=O)CNc1cc(Cl)cc(Cl)c1 (stereo not drawn) [Compound 41],100 to 999
5,CN(c1ncnc2[nH]ccc12)C1CCCN(C(=O)CNc2cc(F)cc(Cl)c2)C1C(F)(F)F (stereo not drawn) [Compound 9],< 100
6,O=C(CNc1cc(Cl)cc(Cl)c1)N1C[C@@H](Nc2ncnc3[nH]ccc23)C[C@@H](C(F)(F)F)C1 [Compound 122],100 to 999
7,O=C(CNc1cc(F)cc(C(F)(F)F)c1)N1CCC[C@H](Nc2ncnc3[nH]ncc23)C1 [Compound 177],1000 to 10000
8,O=C(CNc1cc(Cl)cc(Cl)c1)N1CCC[C@H](Nc2ncnc3scnc23)C1 [Compound 115],> 10000
9,O=C(CNc1cc(C(F)(F)F)cc(C(F)(F)F)c1)N1CCC[C@H](Nc2ncnc3[nH]ccc23)C1 [Compound 187],1000 to 10000
10,CCCN(c1ncnc2[nH]ccc12)C1CCCN(C(=O)CNc2cc(Cl)cc(Cl)c2)C1 (stereo not drawn) [Compound 106],< 100
11,CN1CCN(C(=O)c2ccc(-c3cnc4[nH]ccc4c3N[C@H]3CCCN(C(=O)CNc4cc(Cl)cc(Cl)c4)C3)cc2)CC1 [Compound 1],< 100
12,C[C@@H](Nc1cc(Cl)cc(Cl)c1)C(=O)N1CCC[C@H](Nc2ncnc3[nH]ccc23)C1 [Compound 208],100 to 999
13,CN(c1ncnc2[nH]ccc12)C1CCCN(C(=O)CNc2cc(Cl)cc(Cl)c2)C1C(F)(F)F (stereo not drawn) [Compound 14],< 100
14,O=C(CNc1cc(Cl)cc(Cl)c1)N1CCCC(N(CCN2CCOCC2)c2ncnc3[nH]ccc23)C1 (stereo not drawn) [Compound 86],100 to 999
15,CCC[C@@H](Nc1cc(Cl)cc(Cl)c1)C(=O)N1CCC2CCN(c3ncnc4[nH]ccc34)C2C1 (stereo partly drawn) [Compound 101],< 100
16,O=C(CNc1ccccc1F)N1CCC[C@H](Nc2ncnc3[nH]ccc23)C1 [Compound 194],> 10000
17,CCCN(CC(C)C)S(=O)(=O)c1ccccc1NCC(=O)N1CC[C@@H](C)[C@H](Nc2ncnc3[nH]ncc23)C1 [Compound 213],> 10000

row,SMILES,IC50 [nM]
1,O=C(CNc1cc(Cl)cc(Cl)c1)N1CCCC(N(CCO)c2ncnc3[nH]ccc23)C1 (stereo not drawn) [Compound 43],< 100
2,CN(c1ncnc2[nH]ncc12)[C@H]1CCCN(C(=O)CNc2cc(Cl)cc(C(F)(F)F)c2)C1 [Compound 145],1000 to 10000
3,O=C(CNC1CCCC1)N1CCC[C@H](Nc2ncnc3[nH]ccc23)C1 [Compound 149],> 10000
4,CN(c1ncnc2[nH]ncc12)[C@H]1CCCN(C(=O)CNc2cc(Cl)cc(Cl)c2)C1 [Compound 212],100 to 999
5,O=C(CNc1cc(Cl)cc(C(F)(F)F)c1)N1CCCC(Nc2ncnc3[nH]ccc23)C1C(F)(F)F (stereo not drawn) [Compound 17],< 100
6,C[C@H]1[C@H](Nc2ncnc3[nH]ncc23)CCCN1C(=O)CNc1cc(F)cc(Cl)c1 [Compound 26],100 to 999
7,CCC[C@@H](Nc1cc(Cl)cc(Cl)c1)C(=O)N1CCCC(Nc2ncnc3[nH]ncc23)C1C (stereo partly drawn) [Compound 61],< 100
8,CC1C(Nc2ncnc3[nH]ccc23)CCCN1C(=O)CNc1ccccc1S(=O)(=O)N1CCCC1 (stereo not drawn) [Compound 79],< 100
9,O=C(CNc1cc(Cl)cc(Cl)c1)N1CCCC(N(CCc2ccccc2)c2ncnc3[nH]ccc23)C1 (stereo not drawn) [Compound 97],> 10000
10,CC1C(Nc2ncnc3[nH]ncc23)CCCN1C(=O)[C@H](Nc1cc(Cl)cc(Cl)c1)C1CC1 (stereo partly drawn) [Compound 52],< 100
11,CC(C)CN(CC(C)C)S(=O)(=O)c1ccccc1NCC(=O)N1CCC[C@@H](Nc2ncnc3[nH]ccc23)C1 [Compound 218],100 to 999
12,CCCN(c1ncnc2[nH]ccc12)[C@H]1CCCN(C(=O)CNc2cc(Cl)cc(Cl)c2)C1 [Compound 118],> 10000
13,O=C(CNC1CCCCC1)N1CCC[C@H](Nc2ncnc3[nH]ccc23)C1 [Compound 162],> 10000
14,O=C(Nc1cc(Cl)cc(Cl)c1)C(=O)N1CCCC(Nc2ncnc3[nH]ccc23)C1 (stereo not drawn) [Compound 225],> 10000
15,CCN(c1ncnc2[nH]ccc12)[C@H]1CCCN(C(=O)CNc2cc(Cl)cc(Cl)c2)C1 [Compound 126],> 10000
16,O=C(CNc1cc(Cl)cc(Cl)c1)N1CCC[C@H](Nc2ncnc3[nH]cnc23)C1 [Compound 175],100 to 999

# More lines, now with the values ahead:
row,IC50 [nM],SMILES
1,< 100,CC[C@@H](Nc1cc(Cl)cc(Cl)c1)C(=O)N1CCCC(Nc2ncnc3[nH]ncc23)C1C (stereo partly drawn) [Compound 65]
2,< 100,CC1C(Nc2ncnc3[nH]ccc23)CCCN1C(=O)CNc1ccccc1S(=O)(=O)N1CCCCC1 (stereo not drawn) [Compound 66]
3,< 100,O=C(CNc1cc(Cl)cc(Cl)c1)N1CCC[C@@H](Nc2c(-c3ccc(C(=O)N4CCOCC4)cc3)cnc3[nH]ccc23)C1 [Compound 3]
4,1000 to 10000,CN(c1ncnc2[nH]ccc12)[C@@H]1CCN(C(=O)CNc2cc(Cl)cc(Cl)c2)C1 [Compound 127]
5,< 100,O=C(CNc1cc(Cl)cc(Cl)c1)N1CCC[C@H](Nc2ccnc3[nH]ccc23)C1 [Compound 169]
6,< 100,CCC[C@@H](Nc1cccc(Cl)c1)C(=O)N1CCC2CCN(c3ncnc4[nH]ccc34)C2C1 (stereo partly drawn) [Compound 102]
7,100 to 999,C[C@H]1[C@@H](Nc2ncnc3[nH]ncc23)CCCN1C(=O)CNc1cc(F)cc(Cl)c1 [Compound 27]
8,> 10000,O=CNc1cnc(Br)cc1N[C@H]1CCCN(C(=O)CN(C=O)c2cc(Cl)cc(Cl)c2)C1 [Compound 121]
9,> 10000,CN(c1ncnc2[nH]ccc12)[C@H]1CCN(C(=O)CNc2cc(Cl)cc(Cl)c2)C1 [Compound 132]
10,< 100,C[C@@H](Nc1cc(Cl)cc(Cl)c1)C(=O)N1CCC2CCN(c3ncnc4[nH]ccc34)C2C1 (stereo partly drawn) [Compound 56]
11,< 100,CC1C(Nc2ncnc3[nH]ncc23)CCCN1C(=O)[C@@H](C)Nc1cc(Cl)cc(Cl)c1 (stereo partly drawn) [Compound 60]
12,100 to 999,CN1CCN(C(=O)c2cnc3[nH]ccc3c2N[C@@H]2CCCN(C(=O)CNc3cc(Cl)cc(Cl)c3)C2)CC1 [Compound 230]
13,< 100,CC1C2C(CCN1C(=O)CNc1cc(Cl)cc(Cl)c1)CCN2c1ncnc2[nH]ccc12 (stereo not drawn) [Compound 57]
14,< 100,C[C@@H]1C[C@H](N(C)c2ncnc3[nH]ccc23)CN(C(=O)CNc2cc(Cl)cc(Cl)c2)C1 [Compound 98]
15,< 100,NC(=O)c1cnc2[nH]ccc2c1NC1CCCN(C(=O)CNc2cc(Cl)cc(Cl)c2)C1C(F)(F)F (stereo not drawn) [Compound 228]
16,> 10000,Nc1ncnc2c1ncn2C1CCCN(C(=O)CNc2cc(Cl)cc(Cl)c2)C1 (stereo not drawn) [Compound 233]
17,< 100,CC1C(N(C)c2ncnc(N)c2F)CCCN1C(=O)CNc1cc(Cl)cc(Cl)c1 (stereo not drawn) [Compound 49]
18,> 10000,O=C(CNc1cccc(F)c1)N1CCC[C@H](Nc2ncnc3[nH]ncc23)C1 [Compound 182]
19,> 10000,CC(=O)Nc1cc(N(C)[C@H]2CCCN(C(=O)CNc3cc(Cl)cc(Cl)c3)C2)ncn1 [Compound 128]
20,100 to 999,CC1C(Nc2ncnc3[nH]ccc23)CCCN1C(=O)[C@H](Nc1cc(Cl)cc(Cl)c1)C1CC1 (stereo partly drawn) [Compound 51]

row,IC50 [nM],SMILES
1,1000 to 10000,O=C1C(Nc2cc(F)cc(Cl)c2)CC2CCC(Nc3ncnc4[nH]ccc34)CN12 (stereo not drawn) [Compound 53]
2,100 to 999,CCC1C(Nc2ncnc3[nH]ccc23)CCCN1C(=O)CNc1cc(F)cc(Cl)c1 (stereo not drawn) [Compound 7]
3,< 100,C[C@@H]1C[C@H]2CCN(C(=O)CNc3cc(Cl)cc(Cl)c3)C[C@H]2N1c1ncnc2[nH]ccc12 [Compound 47]
4,100 to 999,CN(c1ncnc2[nH]cnc12)[C@H]1CCCN(C(=O)CNc2cc(Cl)cc(Cl)c2)C1 [Compound 151]
5,< 100,O=C(CNc1cc(Cl)cc(Cl)c1)N1CC2CC(Nc3ncnc4[nH]ncc34)C1C2 (stereo not drawn) [Compound 171]
6,< 100,CC1CC2CCN(C(=O)CNc3cc(Cl)cc(Cl)c3)CC2N1c1ncnc2[nH]ccc12 (stereo not drawn) [Compound 74]
7,100 to 999,CC(C)N(c1ncnc2[nH]ccc12)C1CCCN(C(=O)CNc2cc(Cl)cc(Cl)c2)C1 (stereo not drawn) [Compound 84]
8,> 10000,Nc1ncnc2c1cnn2C1CCCN(C(=O)CNc2cc(Cl)cc(Cl)c2)C1 (stereo not drawn) [Compound 232]
9,< 100,CC1CC(N(C)c2ncnc3[nH]ncc23)CN(C(=O)CNc2cc(Cl)cc(Cl)c2)C1 (stereo not drawn) [Compound 87]
10,100 to 999,O=C(CNc1ccccc1S(=O)(=O)N1CCCCC1)N1CCC[C@@H](Nc2ncnc3[nH]ccc23)C1 [Compound 221]
11,< 100,CC1C(Nc2ncnc3[nH]ncc23)CCCN1C(=O)CNc1cc(F)cc(Cl)c1 (stereo not drawn) [Compound 68]
12,> 10000,CN(c1ncnc2[nH]ncc12)[C@H]1CCN(C(=O)CNc2cc(Cl)cc(Cl)c2)C1 [Compound 130]
13,100 to 999,CN(c1ncnc2[nH]ncc12)C1CC2CC1N(C(=O)CNc1cc(Cl)cc(Cl)c1)C2 (stereo not drawn) [Compound 141]
14,1000 to 10000,O=C(O)CN(c1ncnc2[nH]ccc12)[C@@H]1CCCN(C(=O)CNc2cc(Cl)cc(Cl)c2)C1 [Compound 36]
15,> 10000,O=C(CNc1ccccc1F)N1CCC[C@H](Nc2ncnc3[nH]ncc23)C1 [Compound 203]
16,1000 to 10000,O=C(CNc1cc(Cl)cc(Cl)c1)N1CCCC(N(CCN2CCCCC2)c2ncnc3[nH]ccc23)C1 (stereo not drawn) [Compound 88]
17,< 100,CC(C)C1C(Nc2ncnc3[nH]ccc23)CCCN1C(=O)CNc1cc(Cl)cc(Cl)c1 (stereo not drawn) [Compound 34]
18,< 100,O=C(CNc1cccc(Cl)c1)N1CCCC(Nc2ncnc3[nH]ccc23)C1C(F)(F)F (stereo not drawn) [Compound 20]
19,> 10000,O=C(CNc1ccccc1C(F)(F)F)N1CCC[C@H](Nc2ncnc3[nH]ccc23)C1 [Compound 197]
